Consider one compound from patent publication US7951819B2, “Imidazo[4, 5-B]pyridin-2-one and oxazolo[4, 5-B] pyridin-2-one compounds and analogs thereof as cancer therapeutic compounds” (Cancer Research Technology Limited, priority 2006, dated 2011).

In experiment [1] the target is T1, V600E B-RAF (Homo sapiens, UniProt P15056, V600E).
T1 construct: MDRGSH6 (MDRGS-His6) (N); made in house; host or cells: SF9 insect cells (detergent soluble extract / lysate, not purified)
Nature of the experiment: BRAF V600E Kinase Assay. The format is biochemical. Here is the method:
B-raf kinase activity is measured using a 4-tiered cascade enzyme assay similar to that described by Marais R., et al., 1997, J. Biol. Chem., Vol. 272, pp. 4378-4383. B-Raf containing the V600E mutation (Davies, H., et al., 2002, Nature, Vol. 417, pp. 949-954) and an N-terminal MDRGSH6 tag is expressed in SF9 insect cells. Detergent soluble extracts from these cells are diluted 1:100 into an assay mixture containing GST-MEK-H6 (6.5 μg/ml) and GST-ERK-H6 (100 μg/ml) in a buffer containing 800 μM ATP and appropriate concentrations of inhibitor or diluent as control. The mixture is incubated for up to 10 minutes at 30° C. to activate the ERK in a B-Raf dependent manner within the cascade. […] The extent of activation of the GST-ERK is then determined by adding a portion of this quenched reaction mixture to a further reaction mixture containing MBP and 100 μM ATP/gamma [^32P]ATP. After 12 minutes' incubation at 30° C., the incorporation of [^32P] into the MBP substrate, as a measure of B-raf activity, is determined by precipitation with phosphoric acid and isolation by filtration on p81 phosphocellulose paper. […]
Alternatively, B-raf kinase activity is measured using a different 4-tiered cascade enzyme assay. […] The extent of activation of the GST-ERK is then determined by adding 0.033 μL (100 μM) HOT ^32Pα. […]
Compounds were assessed by a kinase assay performed according to the following protocol. […]

Experiment [2] has as its system ppERK. Nature of the experiment: Phospho-ERK Cell-based Assay. The note with it: cells incubated with test compound for 6 hours. Here is the method:
Compounds were assessed using cell-based assays which were performed according to the following protocol.
Plate out 16,000 cells/well in 99 μL medium in a 96-well plate.
2. Incubate the cells with test compound for 6 hours at 37° C.
5. Add 50 μL of 3 μg/mL primary antibody ppERK (Sigma M8159), diluted in 5% milk powder/TBS, to each well.
13. Read Europium Time Resolved Fluorescence in Victor2.
Note that Europium counts are normalised for protein levels by dividing counts by absorbance.

Experiment [3] concerns WM266.4 melanoma cells. Nature of the experiment: Cell proliferation (SRB) assay. The format is cell-based. To be noted: Homo sapiens, WM 266-4, 144 h, 6 days growth. On the procedure: Cultures of WM266.4 melanoma cells are routinely cultured in DMEM/10% foetal bovine serum, at 37° C., in 5% CO2 water saturated atmosphere. Cultures are maintained in exponential growth phase by sub-culturing before having become confluent (3-5 day intervals). Single cell suspensions are prepared by harvesting an 80 cm^2 tissue culture flask with 5 mL commercial trypsin EDTA. After 5 minutes, the detached cells are mixed with 5 mL fully complemented culture medium and centrifugally pelleted (1000 rpm for 7 minutes). After aspirating the supernatant, the cell pellet is re-suspended in 10 mL fresh medium and the cells fully disaggregated by drawing the whole volume up/down 5 times through a 19-gauge needle. The concentration of the cells is determined using a haemocytometer (1/10 dilution). A suitable volume to give at least a 2-fold excess for the number of tests being conducted, typically 100-200 mL, is prepared by diluting the cell suspension to 10,000/mL, and 100 μL/well dispensed into 96 well plates using a programmable 8-channel peristaltic pump, giving 1000 cells/well, leaving column 12 blank. […] The absorbance at 540 nm in each well (being proportional to the number of cells present) is determined using a plate reader. After averaging the results in rows A-D and E-H, the blank value ([…]) is subtracted, and results expressed as percentage of the untreated value (row 11). […]

T1 sequence (P15056 whole entry V600E): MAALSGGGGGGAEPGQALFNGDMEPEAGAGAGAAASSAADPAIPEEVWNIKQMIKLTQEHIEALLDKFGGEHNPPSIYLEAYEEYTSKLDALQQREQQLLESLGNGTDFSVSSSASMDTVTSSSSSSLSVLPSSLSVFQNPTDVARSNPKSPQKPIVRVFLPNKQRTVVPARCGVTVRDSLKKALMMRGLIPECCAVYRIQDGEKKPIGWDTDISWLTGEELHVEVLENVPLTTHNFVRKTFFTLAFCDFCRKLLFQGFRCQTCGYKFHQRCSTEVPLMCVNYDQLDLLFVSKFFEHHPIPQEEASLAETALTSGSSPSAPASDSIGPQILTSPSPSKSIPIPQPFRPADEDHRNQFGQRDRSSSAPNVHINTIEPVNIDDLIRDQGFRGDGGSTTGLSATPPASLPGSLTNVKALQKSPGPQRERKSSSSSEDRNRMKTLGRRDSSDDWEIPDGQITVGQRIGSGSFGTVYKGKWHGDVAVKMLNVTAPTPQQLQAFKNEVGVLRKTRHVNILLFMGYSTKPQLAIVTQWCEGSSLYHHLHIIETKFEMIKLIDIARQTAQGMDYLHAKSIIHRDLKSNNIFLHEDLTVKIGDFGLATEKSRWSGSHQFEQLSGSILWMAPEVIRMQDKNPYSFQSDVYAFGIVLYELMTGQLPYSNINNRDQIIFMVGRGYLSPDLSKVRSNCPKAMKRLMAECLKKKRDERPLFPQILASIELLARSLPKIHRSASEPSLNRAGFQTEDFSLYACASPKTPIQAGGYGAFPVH

Take `O=C(Nc1cccc(Oc2ccnc3[nH]c(=O)[nH]c23)c1)Nc1ccc(Cl)c(C(F)(F)F)c1` [CJS 3678, 1-(4-Chloro-3-(trifluoromethyl)phenyl)-3-(3-(2-oxo-2,3-dihydro-1H-imidazo[4,5-b]pyridin-7-yloxy)phenyl)urea]: the IC50 was 0.015 µM in experiment [1], 10.7 µM in experiment [2] and 4.2 µM in experiment [3].

In general, IC50 refers to the concentration that inhibits the measured activity by half.
